Measured values as given in paper PMC6697681, “The predominance of nucleotidyl activation in bacterial phosphonate biosynthesis” (Nature Communications, 2019).

Experiments:
Tde-PntC (Tde1415) [1] = biological target: T1, Tde-PntC (Tde1415) (Treponema denticola, UniProt Q73MU2); assay: X-ray crystal structure; format: binding; conditions: AEPT domain, non-covalently bound PLP
T1 construct: full two-domain protein (N-terminal PntC, C-terminal AEPT), C-terminal His tag, pET21b (pGH3000), E. coli BL21(DE3); ~70 kDa monomer, dimer ~146 kDa by DLS
T1 sequence (Q73MU2 whole entry, the tested form may be a part): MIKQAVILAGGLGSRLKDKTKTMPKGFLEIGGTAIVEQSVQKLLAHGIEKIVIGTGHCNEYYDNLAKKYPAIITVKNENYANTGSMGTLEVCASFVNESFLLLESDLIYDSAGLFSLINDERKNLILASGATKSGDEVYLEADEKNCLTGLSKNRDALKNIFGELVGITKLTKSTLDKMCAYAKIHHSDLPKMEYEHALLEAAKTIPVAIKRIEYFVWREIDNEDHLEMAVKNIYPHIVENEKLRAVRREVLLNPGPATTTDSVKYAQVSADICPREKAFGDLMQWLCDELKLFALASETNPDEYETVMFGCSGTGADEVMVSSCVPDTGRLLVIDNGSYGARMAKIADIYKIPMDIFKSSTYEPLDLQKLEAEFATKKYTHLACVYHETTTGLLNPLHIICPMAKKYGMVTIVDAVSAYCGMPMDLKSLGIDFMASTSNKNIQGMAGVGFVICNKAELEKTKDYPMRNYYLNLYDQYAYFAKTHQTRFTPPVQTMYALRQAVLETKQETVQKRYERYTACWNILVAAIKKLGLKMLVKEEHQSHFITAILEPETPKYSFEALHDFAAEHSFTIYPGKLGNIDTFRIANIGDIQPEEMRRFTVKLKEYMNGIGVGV

Tde-PntC (Tde1415) [2] = biological target: T1, Tde-PntC (Tde1415); assay: X-ray crystal structure, […] Å; format: binding; conditions: PntC active site, two Mg2+; crystallised with 5 mM CTP and 5 mM AEP
Ari-PntC (Ari1348) = biological target: T2, Ari-PntC (Ari1348) (Lancefieldella rimae, UniProt B9CM12); assay: coupled pyrophosphate release assay (EnzChek, MESG/PNP), initial rates; format: biochemical; conditions: substrate inhibition constant; saturating CTP (4 mM), 7 mM MgCl2, room temperature
T2 construct: codon-optimized gene in pET29 (pGH2000), C-terminal His6 tag, E. coli BL21(DE3), Ni-NTA and anion exchange; monomer by DLS
T2 sequence (B9CM12 whole entry): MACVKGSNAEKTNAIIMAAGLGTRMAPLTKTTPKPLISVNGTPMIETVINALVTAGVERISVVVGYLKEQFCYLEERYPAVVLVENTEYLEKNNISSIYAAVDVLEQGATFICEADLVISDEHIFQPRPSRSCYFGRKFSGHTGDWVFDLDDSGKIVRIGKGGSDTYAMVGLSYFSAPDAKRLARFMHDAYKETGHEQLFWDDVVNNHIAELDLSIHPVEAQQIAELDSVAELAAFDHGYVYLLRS
Excerpt: coupled pyrophosphate release assay (EnzChek, MESG/PNP), initial rates on Ari-PntC (Ari1348)

Spn-LicC = biological target: T3, Spn-LicC (Streptococcus pneumoniae, UniProt Q8DPI6); assay: as above; format: biochemical; conditions: substrate inhibition constant; saturating CTP (4 mM), 7 mM MgCl2, room temperature
T3 construct: monomer by DLS
T3 sequence (Q8DPI6 whole entry): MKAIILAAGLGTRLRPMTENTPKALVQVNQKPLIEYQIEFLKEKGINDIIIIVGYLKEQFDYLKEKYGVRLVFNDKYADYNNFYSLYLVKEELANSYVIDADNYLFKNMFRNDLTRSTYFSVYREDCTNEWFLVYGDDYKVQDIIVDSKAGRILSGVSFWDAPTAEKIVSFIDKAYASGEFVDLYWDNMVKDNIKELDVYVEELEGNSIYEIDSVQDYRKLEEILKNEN
Excerpt: coupled pyrophosphate release assay (EnzChek, MESG/PNP), initial rates on Spn-LicC

For Cc1ncc(COP(=O)(O)O)c(C=O)c1O [PLP], the X-ray crystal structure (Tde-PntC (Tde1415) [1]) was “The AEPT domain of Tde1415 possesses PLP and the requisite active site features”.
For NCCP(=O)(O)OP(=O)(O)OC[C@H]1O[C@@H](n2ccc(N)nc2=O)[C@H](O)[C@@H]1O [CMP-AEP], the “X-ray crystal structure, 1.95 Å” value (Tde-PntC (Tde1415) [2]) was “Tde1415 and Tde1415:CMP-AEP have been deposited in the Protein Data Bank”.
For C[N+](C)(C)CCOP(=O)([O-])O [P-Cho], the KS (Ari-PntC (Ari1348)) was 4 ± 1 mM and the KS (Spn-LicC) was 6.4 ± 0.9 mM.
